Measurements: BindingDB's records for doi:10.1021/jm060314i (Cnrs, 2006)
Where a name gives a salt, the structure may show the parent alone.

The compounds below were run against 5L hepatoma cell line (Rattus norvegicus) (assay: Survival of rat 5L hepatoma cells after 48 hrs by MTS reduction assay).

SMILES	IC50 [µM]
CN(C)CCO/N=C1/C(c2c(O)[nH]c3c(Br)cccc23)=Nc2ccccc21 [(2'Z,3'E)-7-bromoindirubin-3'-[O-(2-dimethylaminoethyl)oxime] hydrochloride]	> 30
CN(C)CCO/N=C1/C(c2c(O)[nH]c3c(Br)cccc23)=Nc2ccccc21 [(2'Z,3'E)-7-bromoindirubin-3'-[O-(2-dimethylaminoethyl)oxime]]	25
Oc1[nH]c2c(Br)cccc2c1C1=Nc2ccccc2/C1=N\OCCN1CCCC1 [(2'Z,3'E)-7-bromoindirubin-3'-[O-(2-pyrrolidin-1-ylethyl)oxime] hydrochloride]	> 30
